Reference: PubChem BioAssay (NCI)
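48-hour exposure; five concentrations; linearly interpolated endpoints. TGI: total growth inhibition.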

How the values were obtained:
Test in all cases: DTP human tumour cell line panel, 48 h
SF-295 CNS = tested on: SF-295 CNS
NCI-H522 lung = tested on: NCI-H522 lung
UACC-257 melanoma = tested on: UACC-257 melanoma
CCRF-CEM leukemia = tested on: CCRF-CEM leukemia
UACC-62 melanoma = tested on: UACC-62 melanoma
MOLT-4 leukemia = tested on: MOLT-4 leukemia
SK-MEL-5 melanoma = tested on: SK-MEL-5 melanoma
SK-MEL-28 melanoma = tested on: SK-MEL-28 melanoma
CAKI-1 renal = tested on: CAKI-1 renal
DU-145 prostate = tested on: DU-145 prostate
HT29 colon = tested on: HT29 colon
U251 CNS = tested on: U251 CNS
MDA-N = tested on: MDA-N
NCI-H23 lung = tested on: NCI-H23 lung
SK-OV-3 ovarian = tested on: SK-OV-3 ovarian
PC-3 prostate = tested on: PC-3 prostate
LOX IMVI melanoma = tested on: LOX IMVI melanoma
SK-MEL-2 melanoma = tested on: SK-MEL-2 melanoma
HOP-62 NSCLC = tested on: HOP-62 NSCLC
A498 renal = tested on: A498 renal
OVCAR-5 ovarian = tested on: OVCAR-5 ovarian
COLO 205 colon = tested on: COLO 205 colon
HCT-116 colon = tested on: HCT-116 colon
NCI-H460 lung = tested on: NCI-H460 lung
786-0 renal = tested on: 786-0 renal
SN12C renal = tested on: SN12C renal
KM12 colon = tested on: KM12 colon
OVCAR-3 ovarian = tested on: OVCAR-3 ovarian
SNB-75 CNS = tested on: SNB-75 CNS
MDA-MB-435 = tested on: MDA-MB-435
HS 578T breast = tested on: HS 578T breast
UO-31 renal = tested on: UO-31 renal
M14 melanoma = tested on: M14 melanoma
OVCAR-8 ovarian = tested on: OVCAR-8 ovarian
SNB-19 CNS = tested on: SNB-19 CNS
SF-268 CNS = tested on: SF-268 CNS
NCI/ADR-RES ovarian = tested on: NCI/ADR-RES ovarian
OVCAR-4 ovarian = tested on: OVCAR-4 ovarian
HCT-15 colon = tested on: HCT-15 colon
SR leukemia = tested on: SR leukemia
NCI-H226 lung = tested on: NCI-H226 lung
K-562 leukemia = tested on: K-562 leukemia
HCC-2998 colon = tested on: HCC-2998 colon
A549 NSCLC = tested on: A549 NSCLC
TK-10 renal = tested on: TK-10 renal
SW-620 colon = tested on: SW-620 colon
T-47D breast = tested on: T-47D breast
ACHN renal = tested on: ACHN renal

## C=CC[C@@H]1C(=O)[C@@]2(O[Si](C(C)C)(C(C)C)C(C)C)CC[C@@H]1C[C@H]2NC(=O)OCC(Cl)(Cl)Cl
SF-295 CNS
  TGI: 85.8 µM
NCI-H522 lung
  TGI: 0.0356 µM
UACC-257 melanoma
  TGI: > 100 µM
CCRF-CEM leukemia
  TGI: > 100 µM
UACC-62 melanoma
  TGI: > 100 µM
MOLT-4 leukemia
  TGI: > 100 µM
SK-MEL-5 melanoma
  TGI: > 100 µM
SK-MEL-28 melanoma
  TGI: > 100 µM
CAKI-1 renal
  TGI: > 100 µM
DU-145 prostate
  TGI: > 100 µM
HT29 colon
  TGI: > 100 µM
U251 CNS
  TGI: > 100 µM
MDA-N
  TGI: > 100 µM
NCI-H23 lung
  TGI: > 100 µM
SK-OV-3 ovarian
  TGI: > 100 µM
PC-3 prostate
  TGI: > 100 µM
LOX IMVI melanoma
  TGI: > 100 µM
SK-MEL-2 melanoma
  TGI: > 100 µM
HOP-62 NSCLC
  TGI: > 100 µM
A498 renal
  TGI: > 100 µM
OVCAR-5 ovarian
  TGI: > 100 µM
COLO 205 colon
  TGI: > 100 µM
HCT-116 colon
  TGI: > 100 µM
NCI-H460 lung
  TGI: > 100 µM
786-0 renal
  TGI: > 100 µM
SN12C renal
  TGI: > 100 µM
KM12 colon
  TGI: > 100 µM
OVCAR-3 ovarian
  TGI: > 100 µM
SNB-75 CNS
  TGI: > 100 µM
MDA-MB-435
  TGI: > 100 µM
HS 578T breast
  TGI: > 100 µM
UO-31 renal
  TGI: > 100 µM
M14 melanoma
  TGI: > 100 µM
OVCAR-8 ovarian
  TGI: > 100 µM
SNB-19 CNS
  TGI: > 100 µM
SF-268 CNS
  TGI: > 100 µM
NCI/ADR-RES ovarian
  TGI: > 100 µM
OVCAR-4 ovarian
  TGI: > 100 µM
HCT-15 colon
  TGI: > 100 µM
SR leukemia
  TGI: > 100 µM
NCI-H226 lung
  TGI: > 100 µM
K-562 leukemia
  TGI: > 100 µM
HCC-2998 colon
  TGI: > 100 µM
A549 NSCLC
  TGI: > 100 µM
TK-10 renal
  TGI: > 100 µM
SW-620 colon
  TGI: > 100 µM
T-47D breast
  TGI: > 100 µM
ACHN renal
  TGI: > 100 µM
